# Measured values published in US8536354B2, “Steroidal ligands and their use in gene switch modulation” (Intrexon Corporation, priority 2008, dated 2013).
# Like-named read-outs stand apart in the source and are kept apart here.
# Columns and labels:
# [1] = target: wild-type Aedes aegypti EcR (AaEcR; GAL4-EcR DEF with VP16-RXR-USP chimera) (Aedes aegypti, UniProt P49880); experiment: Two-hybrid gene switch assay, luciferase reporter, wild-type AaEcR, mouse NIH3T3 cells; assay type: cell-based
# [2] = target: BmEcR (GAL4-EcR DEF with VP16-RXR-USP chimera) (Bombyx mori, UniProt P49881); experiment: Two-hybrid gene switch assay, luciferase reporter, BmEcR, mouse NIH3T3 cells; assay type: cell-based
# [3] = target: T1, BaEcR (GAL4-EcR DEF with VP16-RXR-USP chimera) (Bemisia tabaci, UniProt A0A6M3RDR8); experiment: Two-hybrid gene switch assay, luciferase reporter, BaEcR, mouse NIH3T3 cells
# T1 sequence (A0A6M3RDR8 115-530): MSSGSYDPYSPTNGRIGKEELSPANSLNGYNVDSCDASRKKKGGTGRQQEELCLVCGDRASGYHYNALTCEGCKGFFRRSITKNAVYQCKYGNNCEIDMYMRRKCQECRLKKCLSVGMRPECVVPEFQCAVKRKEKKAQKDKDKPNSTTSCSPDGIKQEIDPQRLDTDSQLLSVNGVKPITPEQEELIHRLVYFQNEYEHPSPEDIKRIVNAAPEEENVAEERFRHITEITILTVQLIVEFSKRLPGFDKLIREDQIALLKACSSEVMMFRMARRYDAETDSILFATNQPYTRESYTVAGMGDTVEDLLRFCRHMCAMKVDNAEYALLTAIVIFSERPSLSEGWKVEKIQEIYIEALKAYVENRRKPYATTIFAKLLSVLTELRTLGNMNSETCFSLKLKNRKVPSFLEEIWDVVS
# T1 sequence (P28702 1-533 partner): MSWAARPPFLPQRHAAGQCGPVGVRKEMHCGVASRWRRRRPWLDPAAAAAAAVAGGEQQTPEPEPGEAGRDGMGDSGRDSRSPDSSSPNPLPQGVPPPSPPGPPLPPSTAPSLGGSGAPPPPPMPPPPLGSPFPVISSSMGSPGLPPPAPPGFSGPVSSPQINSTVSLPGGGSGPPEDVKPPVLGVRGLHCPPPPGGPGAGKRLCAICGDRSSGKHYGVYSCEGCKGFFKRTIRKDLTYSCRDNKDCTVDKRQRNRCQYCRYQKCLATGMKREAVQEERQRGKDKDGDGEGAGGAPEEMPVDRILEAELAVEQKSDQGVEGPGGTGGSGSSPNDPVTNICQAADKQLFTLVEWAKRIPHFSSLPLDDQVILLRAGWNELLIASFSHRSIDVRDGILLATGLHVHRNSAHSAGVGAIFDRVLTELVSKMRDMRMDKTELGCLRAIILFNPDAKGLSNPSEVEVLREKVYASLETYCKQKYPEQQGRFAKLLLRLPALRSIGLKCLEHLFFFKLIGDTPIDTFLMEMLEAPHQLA
# [4] = target: T2, TmEcR (GAL4-EcR DEF with VP16-RXR partner) (Tenebrio molitor, UniProt O02035); experiment: Two-hybrid gene switch assay, luciferase reporter, TmEcR, mouse NIH3T3 cells
# T2 sequence (O02035 194-491): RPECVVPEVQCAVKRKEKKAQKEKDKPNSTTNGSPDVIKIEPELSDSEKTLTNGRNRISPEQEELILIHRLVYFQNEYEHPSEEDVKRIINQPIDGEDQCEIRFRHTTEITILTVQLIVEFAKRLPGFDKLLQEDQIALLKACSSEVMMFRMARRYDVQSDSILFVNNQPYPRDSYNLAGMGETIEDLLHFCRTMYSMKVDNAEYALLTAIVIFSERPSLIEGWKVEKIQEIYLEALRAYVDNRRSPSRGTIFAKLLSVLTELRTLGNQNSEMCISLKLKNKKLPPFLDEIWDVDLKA
# T2 sequence (P28704 1-520 partner): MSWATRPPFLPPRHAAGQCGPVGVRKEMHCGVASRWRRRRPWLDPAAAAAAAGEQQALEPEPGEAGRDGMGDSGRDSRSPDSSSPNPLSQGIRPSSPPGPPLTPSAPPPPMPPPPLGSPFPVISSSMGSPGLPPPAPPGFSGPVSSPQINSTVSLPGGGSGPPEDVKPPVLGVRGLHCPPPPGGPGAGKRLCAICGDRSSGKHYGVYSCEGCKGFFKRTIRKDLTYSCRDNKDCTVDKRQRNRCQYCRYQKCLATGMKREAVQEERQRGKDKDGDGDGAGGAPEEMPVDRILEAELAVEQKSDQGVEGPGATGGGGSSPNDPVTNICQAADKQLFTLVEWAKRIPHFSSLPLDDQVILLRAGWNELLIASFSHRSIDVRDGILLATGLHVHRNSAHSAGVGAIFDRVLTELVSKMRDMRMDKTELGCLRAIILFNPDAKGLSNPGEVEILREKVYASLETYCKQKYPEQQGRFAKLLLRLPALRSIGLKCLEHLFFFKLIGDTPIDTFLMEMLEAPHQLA
# [5] = target: T3, AmaEcR (GAL4-EcR DEF with VP16-RXR-USP chimera) (Amblyomma americanum, UniProt O44338); experiment: Two-hybrid gene switch assay, luciferase reporter, AmaEcR, mouse NIH3T3 cells
# T3 sequence (O44338 255-570): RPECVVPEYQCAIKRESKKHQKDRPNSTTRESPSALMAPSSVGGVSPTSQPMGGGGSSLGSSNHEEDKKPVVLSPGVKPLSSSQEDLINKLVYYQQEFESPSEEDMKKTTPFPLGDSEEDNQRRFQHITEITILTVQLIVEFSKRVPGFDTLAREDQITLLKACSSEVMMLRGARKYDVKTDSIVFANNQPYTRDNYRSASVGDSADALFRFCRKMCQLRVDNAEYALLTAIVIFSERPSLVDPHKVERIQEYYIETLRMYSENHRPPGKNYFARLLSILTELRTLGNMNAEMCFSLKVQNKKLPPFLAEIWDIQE
# T3 sequence (P28702 1-533 partner): T1 sequence (P28702 1-533 partner)
# [6] = target: T4, wild-type CfEcR (GAL4-CfEcR-DEF with VP16-RXR-USP chimera) (Choristoneura fumiferana, UniProt O77255); experiment: Two-hybrid gene switch assay, luciferase reporter, wild-type CfEcR, mouse NIH3T3 cells
# T4 sequence (O77255 219-541): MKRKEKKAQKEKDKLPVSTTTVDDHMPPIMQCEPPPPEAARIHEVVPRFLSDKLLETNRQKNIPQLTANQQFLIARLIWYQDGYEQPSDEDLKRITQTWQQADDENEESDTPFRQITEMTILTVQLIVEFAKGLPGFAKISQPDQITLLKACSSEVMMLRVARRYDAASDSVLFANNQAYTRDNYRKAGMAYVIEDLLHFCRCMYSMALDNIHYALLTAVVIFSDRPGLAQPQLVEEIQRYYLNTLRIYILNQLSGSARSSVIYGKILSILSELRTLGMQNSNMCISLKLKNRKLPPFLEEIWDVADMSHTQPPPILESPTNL
# T4 sequence (P28702 1-533 partner): T1 sequence (P28702 1-533 partner)
# [7] = EC50, FIG. 14A/14B, GAL4-EcR(DEF) with VP16-RXR-USP chimera
# [8] = EC50, FIG. 13A/13B, BmEcR, GAL4-EcR(DEF) with VP16-RXR-USP chimera
# [9] = EC50, FIG. 14A/14B, GAL4-EcR(DEF)
# [10] = FIG. 14A/14B, GAL4-EcR(DEF) with VP16-RXR-USP chimera, read-out: EC50
# [11] = EC50, FIG. 16, GAL4-EcR (DEF) / VP16-RXR-USP chimera
# [12] = EC50, FIG. 15, BmEcR, GAL4-EcR (DEF) / VP16-RXR-USP chimera
# Sequence of BmEcR (GAL4-EcR DEF with VP16-RXR-USP chimera) (P49881 other isoform, or with tags, fused parts or gaps, change not shown): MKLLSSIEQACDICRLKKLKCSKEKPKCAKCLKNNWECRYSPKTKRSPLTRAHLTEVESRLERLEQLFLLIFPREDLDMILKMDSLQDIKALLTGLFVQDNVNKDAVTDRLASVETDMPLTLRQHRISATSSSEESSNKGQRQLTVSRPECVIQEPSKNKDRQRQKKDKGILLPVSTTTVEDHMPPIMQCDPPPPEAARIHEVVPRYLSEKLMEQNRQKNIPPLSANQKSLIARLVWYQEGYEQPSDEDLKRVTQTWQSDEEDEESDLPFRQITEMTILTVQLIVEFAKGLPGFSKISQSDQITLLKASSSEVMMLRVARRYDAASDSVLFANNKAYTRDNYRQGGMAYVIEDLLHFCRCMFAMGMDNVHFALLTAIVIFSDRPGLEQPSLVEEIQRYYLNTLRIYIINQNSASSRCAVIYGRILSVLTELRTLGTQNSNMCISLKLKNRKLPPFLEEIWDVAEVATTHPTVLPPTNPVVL
# Sequence of wild-type Aedes aegypti EcR (AaEcR; GAL4-EcR DEF with VP16-RXR-USP chimera) (P49880 with tags, fused parts or gaps limits assumed, change not shown): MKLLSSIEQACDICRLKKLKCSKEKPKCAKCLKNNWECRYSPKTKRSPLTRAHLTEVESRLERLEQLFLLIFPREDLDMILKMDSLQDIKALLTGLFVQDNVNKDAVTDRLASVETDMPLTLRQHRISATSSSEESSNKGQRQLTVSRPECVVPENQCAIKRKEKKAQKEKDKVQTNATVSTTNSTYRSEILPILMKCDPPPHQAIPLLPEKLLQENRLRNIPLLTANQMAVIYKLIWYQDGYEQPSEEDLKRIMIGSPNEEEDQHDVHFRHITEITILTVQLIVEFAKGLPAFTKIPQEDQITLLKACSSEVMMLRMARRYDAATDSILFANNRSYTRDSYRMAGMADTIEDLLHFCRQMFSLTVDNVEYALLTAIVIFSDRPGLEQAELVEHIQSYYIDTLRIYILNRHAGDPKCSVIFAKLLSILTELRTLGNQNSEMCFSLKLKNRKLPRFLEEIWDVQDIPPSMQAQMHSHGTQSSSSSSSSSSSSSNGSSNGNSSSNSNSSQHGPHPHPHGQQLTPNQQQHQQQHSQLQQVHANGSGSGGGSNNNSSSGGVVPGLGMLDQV
Structure (SMILES),"EC50 [1, 7] [µM]","EC50 [2, 8] [µM]","EC50 [3, 7] [µM]","EC50 [4, 9] [µM]","EC50 [5, 7] [µM]",EC50 [6] [µM],"EC50 [1, 10] [µM]",EC50 [2] [µM],EC50 ([2]; read-out: EC50) [µM],"EC50 [1, 11] [µM]","EC50 [2, 12] [µM]","EC50 [3, 11] [µM]","EC50 ([4]; EC50, FIG. 16, GAL4-EcR (DEF)) [µM]","EC50 [5, 11] [µM]","EC50 ([6]; FIG. 15, CfEcR, GAL4-EcR (DEF) / VP16-RXR-USP chimera) [µM]"
CC(C)CC[C@@H](O)[C@](C)(O)[C@H]1CC[C@@]2(O)C3=CC(=O)[C@@H]4C[C@@H](O)[C@@H](O)C[C@]4(C)[C@H]3[C@H](O)C[C@]12C [ajugasterone C],0.07,~10,2.06,9.51,~0.2,~20,,,,,,,,,
CC(C)(O)C(CCC(C)(O)C1CCC2(O)C3=CC(=O)C4CC(O)C(O)CC4(C)C3CCC12C)OC(=O)c1ccc[nH]1 (stereo not shown) [canescensterone],,,~0.2,~0.33,~0.3,> 10,~0.2,> 10,,,,,,,
CC1(C)OC(=O)C=C1CC(O)C(C)(O)C1CCC2(O)C3=CC(=O)C4CC(O)C(O)CC4(C)C3CCC12C (stereo not shown) [carthamosterone],,,> 33,> 33,~20,> 33,~15,,> 33,,,,,,
C[C@H]([C@H](O)CCC(C)(C)O)[C@H]1CC[C@@]2(O)C3=CC(=O)[C@@H]4C[C@@H](O)[C@@H](O)C[C@]4(C)[C@H]3CC[C@]12C [ecdysone],~15,> 33,> 33,> 33,~7,> 33,,,,3.43,> 33,> 33,> 33,> 33,> 33
CC(C)(O)CC[C@@H](O)[C@](C)(O)[C@H]1CC[C@@]2(O)C3=CC(=O)[C@@H]4C[C@@H](O)[C@@H](O)[C@@H](O)[C@]4(C)[C@H]3CC[C@]12C [integristerone A],,,~20,~8,~10,> 33,~10,,> 33,,,,,,
CC(CC(O)C(C)(O)C1CCC2(O)C3=CC(=O)C4CC(O)C(O)CC4(C)C3CCC12C)C(C)(C)O (stereo not shown) [makisterone A],,,~15,~20,1.4,> 33,3.33,,> 33,,,,,,
CCC(CC(O)C(C)(O)C1CCC2(O)C3=CC(=O)C4CC(O)C(O)CC4(C)C3CCC12C)C(C)(C)O (stereo not shown) [makisterone C],,,~3.3,~4,~2,> 33,1.02,,> 33,,,,,,
CC(C)(O)CC[C@@H](O)[C@](C)(O)[C@H]1CC[C@@]2(O)C3=CC(=O)[C@]4(O)C[C@@H](O)[C@@H](O)C[C@]4(C)[C@H]3CC[C@]12C [polypodine B],0.173,~8,~3.3,~10,~3.3,~20,,,,0.05,~9,,~3,~0.3,
CC(C)=CC[C@@H](O)[C@](C)(O)[C@H]1CC[C@@]2(O)C3=CC(=O)[C@@H]4C[C@@H](O)[C@@H](O)C[C@]4(C)[C@H]3CC[C@]12C [stachysterone C],0.044,~5,0.658,1.47,~0.1,~10,,,,,,,,,
CCCCCC(=O)OC1CC2(C)C(C(C)(O)C(O)CCC(C)(C)O)CCC2(O)C2=CC(=O)C3CC(O)C(O)CC3(C)C21 (stereo not shown) [turkesterone-11 a -hexanoate],~12,> 33,> 33,> 33,~10,> 33,,,,,,,,,
CCC(=O)OC1CC2(C)C(C(C)(O)C(O)CCC(C)(C)O)CCC2(O)C2=CC(=O)C3CC(O)C(O)CC3(C)C21 (stereo not shown) [turkesterone-11 a -propionate],~15,> 33,> 33,> 33,~10,> 33,,,,,,,,,
CCCCCCCCCC(=O)OC1CC2(C)C(C(C)(O)C(O)CCC(C)(C)O)CCC2(O)C2=CC(=O)C3CC(O)C(O)CC3(C)C21 (stereo not shown) [turkesterone-11a-decanoate],> 33,> 33,> 33,> 33,> 33,> 33,,,,,,,,,
